Results from patent publication US12187758B2 (ROME Therapeutics, Inc., priority 2022, dated 2025).

Experiments:
[1] = system: SDH-A (succinate dehydrogenase-A); test: Mitochondria toxicity assay with PC3 cells, in-cell ELISA SDH-A; type: cell-based; settings: 5 days treatment
In short: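 This in-cell ELISA was run on fixed, permeabilized PC3 cells after 5-day exposure to titrated compound, with cytotoxicity measured on a duplicate plate. Results are reported as categories A (<1.0 μM) to E (>100.0 μM).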

[2] = system: phosphorylated TANK-binding kinase 1 (pTBK1); test: UVB-induced pTBK1 in HaCaT cells; type: cell-based; settings: for IC50: Homo sapiens, light or radiation study, pTBK1 response curves, 72 hours compound treatment, UVB
Protocol: pTBK1 is an important signaling molecule in regulating inflammatory responses. HaCaT cells were plated in 6-well plates at a density of ˜100 k/well in HaCaT media (DMEM, optimized 1× (Addex Bio)+ 1% pen strep (Gibco)^+ 5% heat inactivated fetal bovine serum (Gibco)). The cells were then cultured at 37° C. overnight. The next day, the cells were treated with the test compounds. Each test compound was diluted and added to media aliquots to provide desired concentrations. To add the test compound+media mixture, an equivalent amount of media from each well was aspirated and then replenished with the media dosed with the test compound. The cells were then cultured for an additional 72 hours with compound treatment prior to UVB exposure.
The media was then aspirated from the wells, with the remaining cells at least 80% confluent in each well. One mL of PBS was then added to each well, and the plate was then placed under a UVB lamp. A UVB sensor was positioned near the plate to register the plate's exposure. The cells were exposed to the UVB light until they reached 0.1 mJ/cm2. Then the plate was covered and transferred to a sterile hood for processing.
The PBS was aspirated out of the wells, and the wells were replenished with 3 mL fresh culture media. The cells were then cultured for an additional 24 hours, and samples were processed 24 hours post-UVB exposure. To process the samples, the media was aspirated, the plate placed on ice, and the cells washed with cold PBS, which was then aspirated off. Another 1 mL of cold PBS was added to each well. The cells were then scraped in the cold PBS solution and transferred to conical tubes on ice. The cells were then spun at ≥1000 RCF at 4° C. for 5 minutes. The cells were then resuspended in 1 mL of cold PBS and transferred to a microcentrifuge tube. The cells were spun at ≥1000 RCF at 4° C. for another 5 minutes, and the PBS was aspirated off. The cell pellet was prepared for lysis.
A RIPA lysis buffer (#BP-115, Boston BioProducts) was added to a Halt protease and […] inhibitor cocktail (#78440, ThermoFisher), and the mixture was cooled on ice. About 30 μL of the lysis buffer mix was added to the cells. The samples were briefly vortexed and then incubated on ice for at least 15 minutes. The cells were then spun≥1000 RCF at 4° C. for 5 minutes and the supernatant was transferred to a clean tube. The protein concentration of the cell lysate was measured using Pierce™ Rapid Gold BCA Protein Assay Kit #AF3225 (ThermoFisher). ELISA analysis was run on select samples using one of the following kits: • a. FastScan™ Phospho-TBK1/NAK (Ser172) ELISA Kit #46948 (Cell Signaling Technologies) • b. FastScan™ Total TBK1/NAK ELISA Kit #15816 (Cell Signaling Technologies) • c. FastScan™ Phospho-STING (Ser366) ELISA Kit #82083 (Cell Signaling Technologies) • d. FastScan™ Phospho-IRF-3 (Ser396) ELISA Kit #50386 (Cell Signaling Technologies) • e. FastScan™ Total IRF-3 ELISA Kit #29771 (Cell Signaling Technologies) • f. Phospho-NAK/TBK1 (S172) ELISA Kit (ab279952) (Abcam) • g. Phospho-IRF3 (S386) ELISA Kit (ab279833) (Abcam) Part II—Results
In the table “A” represents values≤0.50 μM; “B” represents values from >0.50 μM to ≤2.0 μM; “C” represents values from >2.0 μM to ≤5.0 μM; “D” represents values from >5.0 μM to ≤10 μM; and “E” represents values>10 μM.

Compound	IC50 [1]	IC50 [2]	cytotoxicity at concentrations [2]
Nc1ccn([C@H]2C[C@H](O)[C@](CO)(CCl)O2)c(=O)n1 [Compound 2, 4-amino-1-((2R,4S,5R)-5-(chloromethyl)-4-hydroxy-5-(hydroxymethyl)tetrahydrofuran-2-yl)pyrimidin-2(1H)-one]	> 100 µM	≤ 0.5 µM	–
C[C@@H]1[C@H](n2ccc(N)nc2=O)O[C@@](CO)(CCl)[C@H]1O [Compound 12, 4-amino-1-((2R,3S,4S,5R)-5-(chloromethyl)-4-hydroxy-5-(hydroxymethyl)-3-methyltetrahydrofuran-2-yl)pyrimidin-2(1H)-one]	> 100 µM	> 10 µM	–
CO[C@@H]1[C@H](n2ccc(N)nc2=O)O[C@@](CO)(CCl)[C@H]1O [Compound 13, 4-amino-1-((2R,3S,4S,5R)-5-(chloromethyl)-4-hydroxy-5-(hydroxymethyl)-3-methoxytetrahydrofuran-2-yl)pyrimidin-2(1H)-one]	> 100 µM	> 10 µM	–
Nc1nc(=O)n([C@H]2C[C@H](O)[C@](CO)(CCl)O2)cc1F [Compound 14, 4-amino-1-((2R,4S,5R)-5-(chloromethyl)-4-hydroxy-5-(hydroxymethyl)tetrahydrofuran-2-yl)-5-fluoropyrimidin-2(1H)-one]	> 100 µM	0.5 to 2 µM	≥ 30 µM
Nc1ncnc2c1ncn2[C@H]1C[C@H](O)[C@](CO)(CCl)O1 [Compound 15, (2R,3S,5R)-5-(6-amino-9H-purin-9-yl)-2-(chloromethyl)-2-(hydroxymethyl)tetrahydrofuran-3-ol]	> 100 µM	> 10 µM	–
Nc1ccn([C@H]2C[C@H](O)[C@](CO)(C3CC3)O2)c(=O)n1 [Compound 16, 4-amino-1-((2R,4S,5R)-5-cyclopropyl-4-hydroxy-5-(hydroxymethyl)tetrahydrofuran-2-yl)pyrimidin-2(1H)-one]	> 100 µM	> 10 µM	–
C[C@@H]1[C@H](n2ccc(N)nc2=O)O[C@](C)(CO)[C@H]1O [Compound 19, 4-amino-1-((2R,3S,4S,5R)-4-hydroxy-5-(hydroxymethyl)-3,5-dimethyltetrahydrofuran-2-yl)pyrimidin-2(1H)-one]	10 to 50 µM	> 10 µM	–
C#C[C@]1(CO)O[C@@H](n2cnc3c(N)nc(Cl)nc32)C[C@@H]1O [Compound 25]	> 100 µM	–	–
Nc1ccn([C@@H]2O[C@@](CO)(CCl)[C@@H](O)[C@@H]2F)c(=O)n1 [Compound 40, 4-amino-1-((2R,3S,4R,5R)-5-(chloromethyl)-3-fluoro-4-hydroxy-5-(hydroxymethyl)tetrahydrofuran-2-yl)pyrimidin-2(1H)-one]	> 100 µM	2 to 5 µM	–
CC[C@]1(CO)O[C@@H](n2ccc(N)nc2=O)C[C@@H]1O [Compound 44, 4-amino-1-((2R,4S,5R)-5-ethyl-4-hydroxy-5-(hydroxymethyl)tetrahydrofuran-2-yl)pyrimidin-2(1H)-one]	> 100 µM	> 10 µM	–
CC[C@]1(CO)O[C@@H](n2ccc(N)nc2=O)[C@@H](F)[C@@H]1O [Compound 51, 4-amino-1-((2R,3S,4R,5R)-5-ethyl-3-fluoro-4-hydroxy-5-(hydroxymethyl)tetrahydrofuran-2-yl)pyrimidin-2(1H)-one]	> 100 µM	> 10 µM	–
[N-]=[N+]=N[C@]1(CO)O[C@@H](n2cc(F)c(N)nc2=O)C[C@@H]1O [Compound 61, 4-amino-1-((2R,4S,5R)-5-azido-4-hydroxy-5-(hydroxymethyl)tetrahydrofuran-2-yl)-5-fluoropyrimidin-2(1H)-one]	> 100 µM	> 10 µM	–
Nc1nc(=O)n([C@@H]2O[C@@](CO)(CCl)[C@@H](O)[C@@H]2F)cc1F [Compound 67, 4-amino-1-[(2R,3S,4R,5R)-5-(chloromethyl)-3-fluoro-4-hydroxy-5-(hydroxymethyl)oxolan-2-yl]-5-fluoropyrimidin-2-one]	> 100 µM	2 to 5 µM	–
Nc1nc(=O)n([C@@H]2O[C@@](CO)(CF)[C@@H](O)[C@@H]2O)cc1F [Compound 72, 4-amino-5-fluoro-1-((2R,3S,4S,5R)-5-(fluoromethyl)-3,4-dihydroxy-5-(hydroxymethyl)tetrahydrofuran-2-yl)pyrimidin-2(1H)-one]	> 100 µM	5 to 10 µM	–
Nc1nc(=O)n([C@@H]2O[C@@](CO)(CF)[C@@H](O)[C@@H]2F)cc1F [Compound 85, 4-amino-5-fluoro-1-[(2R,3S,4R,5R)-3-fluoro-5-(fluoromethyl)-4-hydroxy-5-(hydroxymethyl)oxolan-2-yl] pyrimidin-2-one]	> 100 µM	5 to 10 µM	–
Nc1nc(=O)n([C@H]2C[C@H](O)[C@](CO)(CBr)O2)cc1F [Compound 88, 4-amino-1-((2R,4S,5R)-5-(bromomethyl)-4-hydroxy-5-(hydroxymethyl)tetrahydrofuran-2-yl)-5-fluoropyrimidin-2(1H)-one]	> 100 µM	> 10 µM	–
